# Measurements reported in article PMC10096344 (Molecules, 2023).
# System: S. typhimurium TA102
# Assay: Bacterial reverse mutation assay (Ames assay)
# Type: cell-based, Salmonell typhimurium
# Settings: n = 3
# Experimental: A sample of 2-aminofluorene (10 μg/plate) was used for TA97, TA98, TA100 +S9 test strains, while 1,8-dihydroxyanthraquinone (60 μg/plate) was used for the TA102 +S9 test strain. The histidine was added with the same amount. The plates were incubated for 48 h at 37 °C; the number of colonies was then counted per plate.
smiles,measurement,setting,value
N#CC1=C(N)Oc2c(c(=O)oc3ccccc23)C1c1cc(C(F)(F)F)cc(C(F)(F)F)c1 (stereo not shown) [LP4C],number of bacterial revertant colonies,"LP4C 50 μg/plate, TA102, +S9, mean ± SD",276 ± 11.2
same,number of bacterial revertant colonies,"LP4C 50 μg/plate, TA102, −S9, mean ± SD",260 ± 10.3
same,number of bacterial revertant colonies,"LP4C 200 μg/plate, TA102, +S9, mean ± SD",281 ± 9.36
same,number of bacterial revertant colonies,"LP4C 200 μg/plate, TA102, −S9, mean ± SD",271 ± 5.68
same,number of bacterial revertant colonies,"LP4C 1000 μg/plate, TA102, +S9, mean ± SD",279 ± 10.6
same,number of bacterial revertant colonies,"LP4C 1000 μg/plate, TA102, −S9, mean ± SD",267 ± 8.35
same,number of bacterial revertant colonies,"LP4C 2000 μg/plate, TA102, +S9, mean ± SD",280 ± 11.3
same,number of bacterial revertant colonies,"LP4C 2000 μg/plate, TA102, −S9, mean ± SD",262 ± 8.44
same,number of bacterial revertant colonies,"LP4C 5000 μg/plate, TA102, +S9, mean ± SD",273 ± 12.6
same,number of bacterial revertant colonies,"LP4C 5000 μg/plate, TA102, −S9, mean ± SD",256 ± 9.21
